Source: ChEMBL document CHEMBL4265875, “A comprehensive review on Aurora kinase: Small molecule inhibitors and clinical trial studies” (Eur J Med Chem, 2017)
Blank lines part the entries; values can stand above or below the compound they belong to.

Assays:
SW-620 = assay: Growth inhibition of human SW620 cells incubated for 72 hrs by MTT assay; type: functional; details: SW-620, 72 h
[1] = Inhibition of CYP450 (unknown origin); type: ADME, Homo sapiens
A2780 = assay: Growth inhibition of human A2780 cells incubated for 72 hrs by MTT assay; type: functional; details: A2780, 72 h
[2] = Growth inhibition of in human QGP1 cells incubated for 72 hrs; type: functional, cell-based; details: QGP-1, 72 h
[3] = Growth inhibition of in human BON1 cells incubated for 72 hrs; type: functional, cell-based
[4] = Growth inhibition of in human MIP101 cells incubated for 72 hrs; type: functional, cell-based
Aurora kinase A [5] = biological target: T1, Aurora kinase A (Homo sapiens, UniProt O14965); assay: Inhibition of Aurora A kinase (unknown origin)
Aurora kinase A [6] = biological target: T1, Aurora kinase A; assay: Inhibition of recombinant aurora 2 (unknown origin) expressed in Sf21 insect cells incubated for 60 mins using [biotin LRRWSLGLRRWSLGLRRWSLGLRRWSLG substrate and [gamma33P]ATP by beta plate counting method
Aurora kinase B = Aurora kinase B (Homo sapiens, UniProt Q96GD4); assay: Inhibition of recombinant aurora B (unknown origin)
KCL-22 = assay: Induction of apoptosis in human KCL22 cells by Annexin V staining based assay; type: functional, cell-based
HCT-116 [7] = assay: Growth inhibition of human HCT116 cells by XTT assay; type: functional, cell-based
HT-29 = assay: Growth inhibition of human HT-29 cells by XTT assay; type: functional, cell-based
HeLa = assay: Growth inhibition of human HeLa cells by XTT assay; type: functional, cell-based
[8] = biological target: Aurora kinase B/Inner centromere protein (Homo sapiens) (UniProt Q96GD4+Q9NQS7)
Description: Inhibition of human Aurora B/INCENP assessed as dissociation half life pre-incubated for 30 mins before 5-FAM-PKAtide substrate addition and measured after 120 mins

HCT-116 [9] = assay: Antitumor activity against human HCT116 cells xenografted in nude mouse assessed as reduction in tumor size at 2 mg/kg/hr; type: functional, organism-based; set-up: scale not given: the % may be the effect or the level left
HL-60 = assay: Antitumor activity against human HL60 cells xenografted in nude mouse assessed as reduction in tumor size at 75 mg/kg, ip bid for 13 days; type: functional, organism-based; set-up: scale not given: the % may be the effect or the level left
MM1.S [10] = assay: Antitumor activity against human MM1S cells xenografted in gamma-irradiated CB17 SCID mouse assessed as inhibition of tumor growth at 30 mg/kg, po dosed daily for 21 days; type: functional; details: light or radiation study, 504 h, read-out: TGI
MM1.S [11] = assay: Antitumor activity against human MM1S cells xenografted in gamma-irradiated CB17 SCID mouse assessed as inhibition of tumor growth at 15 mg/kg, po dosed daily for 21 days; type: functional; details: light or radiation study, 504 h, read-out: TGI
[12] = Suppression of cell mitosis in human multiple myeloma cells; type: functional
[13] = Oral bioavailability in fasted mouse at 5 mg/kg administered as single dose by orogastric gavage by LC-MS/MS analysis; type: ADME, organism-based; details: in vivo
[14] = Half life in fasted mouse at 5 mg/kg administered as single dose by orogastric gavage by LC-MS/MS analysis; type: ADME, organism-based; details: in vivo, po
[15] = Half life in fasted monkey at 2 mg/kg administered as single dose by orogastric gavage by LC-MS/MS analysis; type: ADME, organism-based, Macaca mulatta; details: rhesus monkey, in vivo, po
[16] = Half life in fasted dog at 2 mg/kg administered as single dose by orogastric gavage by LC-MS/MS analysis; type: ADME, organism-based, Canis lupus familiaris; details: in vivo, po
[17] = Oral bioavailability in fasted rat at 5 mg/kg administered as single dose by orogastric gavage by LC-MS/MS analysis; type: ADME, organism-based; details: in vivo
[18] = Half life in fasted rat at 5 mg/kg administered as single dose by orogastric gavage by LC-MS/MS analysis; type: ADME, organism-based; details: in vivo, po
[19] = Oral bioavailability in fasted monkey at 2 mg/kg administered as single dose by orogastric gavage by LC-MS/MS analysis; type: ADME, organism-based, Macaca mulatta; details: rhesus monkey, in vivo
[20] = Oral bioavailability in fasted dog at 2 mg/kg administered as single dose by orogastric gavage by LC-MS/MS analysis; type: ADME, organism-based, Canis lupus familiaris; details: in vivo
Aurora kinase C = Aurora kinase C (Homo sapiens, UniProt Q9UQB9); assay: Inhibition of Aurora C kinase (unknown origin)
Chain of Aurora kinase C (Q9UQB9 whole entry): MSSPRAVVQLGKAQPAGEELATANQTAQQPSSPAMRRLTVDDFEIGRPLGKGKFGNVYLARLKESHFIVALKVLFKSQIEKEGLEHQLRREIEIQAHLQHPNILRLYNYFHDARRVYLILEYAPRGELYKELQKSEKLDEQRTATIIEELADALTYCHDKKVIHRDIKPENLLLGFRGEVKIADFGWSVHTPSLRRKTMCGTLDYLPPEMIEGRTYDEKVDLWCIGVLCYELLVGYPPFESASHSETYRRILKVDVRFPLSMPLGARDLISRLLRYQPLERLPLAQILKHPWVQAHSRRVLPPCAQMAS

T1 sequence (O14965 whole entry): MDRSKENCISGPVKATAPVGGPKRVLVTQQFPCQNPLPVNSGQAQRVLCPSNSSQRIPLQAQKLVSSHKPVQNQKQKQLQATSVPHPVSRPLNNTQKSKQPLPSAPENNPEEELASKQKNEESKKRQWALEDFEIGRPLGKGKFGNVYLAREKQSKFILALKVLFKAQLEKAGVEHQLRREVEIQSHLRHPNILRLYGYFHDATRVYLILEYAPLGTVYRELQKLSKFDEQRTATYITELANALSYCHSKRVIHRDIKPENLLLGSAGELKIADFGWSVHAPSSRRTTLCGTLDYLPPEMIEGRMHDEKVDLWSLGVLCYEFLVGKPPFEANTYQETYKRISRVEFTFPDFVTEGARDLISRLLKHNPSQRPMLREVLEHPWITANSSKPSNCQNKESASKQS
Chain of Aurora kinase B (Q96GD4 whole entry): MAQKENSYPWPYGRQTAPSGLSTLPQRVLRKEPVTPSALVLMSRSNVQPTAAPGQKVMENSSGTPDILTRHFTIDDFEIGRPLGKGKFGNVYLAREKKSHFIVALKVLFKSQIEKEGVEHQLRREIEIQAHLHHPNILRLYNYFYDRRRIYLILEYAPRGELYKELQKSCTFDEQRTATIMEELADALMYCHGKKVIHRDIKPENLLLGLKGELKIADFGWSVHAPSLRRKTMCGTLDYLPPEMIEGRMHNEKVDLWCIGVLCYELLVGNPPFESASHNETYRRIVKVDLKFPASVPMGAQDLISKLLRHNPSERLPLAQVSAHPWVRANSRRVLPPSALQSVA

GI50 (SW-620): 0.14 µM | IC50 [1]: > 10 µM | GI50 (A2780): 0.3 µM
SMILES: Cc1cc(CN2CCN(c3c(Br)cnc4nc(-c5ccc(N6CCN(C)CC6)cc5)[nH]c34)CC2)no1

SMILES: COc1cc2c(Nc3ccc(NC(=O)c4ccccc4)cc3)ncnc2cc1OCCCN1CCOCC1
IC50 [2]: 0.9 µM | IC50 [3]: 3 µM | IC50 [4]: 3 µM

IC50 (Aurora kinase A [5]): 0.56 µM
SMILES: O=C1c2[nH]c3cc(-c4ccco4)nn3c(=O)c2CN1Cc1ccccc1

IC50 (Aurora kinase A [6]): 0.06 µM | IC50 (Aurora kinase B): 0.041 µM
SMILES: COc1cc2c(Nc3ccc(C(=O)Nc4ccccc4)cc3)ncnc2cc1O

SMILES: CCN1CCN(C(=O)Cc2ccc(Nc3ncc(F)c(Nc4ccc(C(=O)Nc5ccccc5Cl)cc4)n3)cc2)CC1
IC50 (KCL-22): 5 µM | IC50 (HCT-116 [7]): 0.19 to 0.378 µM | IC50 (HT-29): 5.6 µM | IC50 (HeLa): 0.416 µM

T1/2 [8]: 8 h
SMILES: CCn1cc(-c2ccnc3[nH]c(-c4cccc(CN(C)C)c4)cc23)c(-c2ccc(NC(=O)N(C)C)cc2)n1

SMILES: Cc1cc(Nc2cc(N3CCN(C)CC3)nc(Sc3ccc(NC(=O)C4CC4)cc3)n2)n[nH]1
Activity (HCT-116 [9]): 56% | Activity (HL-60): 98%

IC50 [12]: 0.003 to 1.71 µM
SMILES: COc1cc(Nc2ncc3c(n2)-c2ccc(Cl)cc2C(c2c(F)cccc2OC)=NC3)ccc1C(=O)O [ALISERTIB]
inhibition in vivo at 30 mg/kg (MM1.S [10]): 80% | inhibition in vivo at 15 mg/kg (MM1.S [11]): 42%

bioavailability [13]: 31 to 107% | half-life [14]: 0.6 to 2.4 h | half-life [15]: 0.6 to 2.4 h | half-life [16]: 0.6 to 2.4 h | bioavailability [17]: 31 to 107% | half-life [18]: 0.6 to 2.4 h | IC50 (Aurora kinase B): 0.004 µM | bioavailability [19]: 31 to 107% | bioavailability [20]: 31 to 107% | IC50 (Aurora kinase C): 0.001 µM
SMILES: Cc1csc(-c2nnc(Nc3ccc(Oc4ncccc4-c4ccnc(N)n4)cc3)c3ccccc23)c1 [AMG-900]
